These results are taken from patent publication US11174250B2, “Substituted carboxamides as inhibitors of WDR5 protein-protein binding” (PROPELLON THERAPEUTICS INC., priority 2016, dated 2021).

A word on the Kd: it is the free concentration of one partner at which half of the binding sites on the other are occupied at equilibrium, for simple one-to-one binding. In general, residence time refers to the mean lifetime of the complex, commonly the reciprocal of the off-rate. Usually IC50 stands for the concentration at which inhibition is half-maximal.

Like-named read-outs stand apart in the source and are kept apart here.

One assay has as its target WDR5 protein (Homo sapiens (Human), UniProt P61964). In words: Surface Plasmon Resonance (SPR) assay. Type of assay: binding. The settings on record: for residence time: τ=1/koff, read-out: Residence Time (t, min).
Another assay has as its target MLL1-WRAD2 complex (Homo sapiens (Human), UniProt P61964). Description: MLL1-WRAD2 enzyme assay (in vitro methyl transferase assay). Type of assay: biochemical. How it is done:
Reaction was initiated with 1 μM 3H-SAM and incubated for 1 hour at 30° C. Reaction mixture was transferred to P81 filter-paper and washed with PBS before detection.

Where [1] appears, read: SPR, Table 1, read-out: WDR5 binding affinity (KD).
Where [2] appears, read: SPR, Table 2, read-out: WDR5 binding affinity SPR (KD).
Setting [3] is: MLL1-WRAD2 assay, read-out: In vitro MLL1 activity (IC50).
The mark [4] stands for this setting: Table 4, effect of Fluoro-substitution, read-out: KD (SPR).

Regarding `CC(C)COc1ccc(F)c(-c2ccc(N3CCN(C)CC3)c(NC(=O)c3c[nH]c(=O)cc3C(F)(F)F)c2)c1` [Example 6, N-(2′-fluoro-5′-isobutoxy-4-(4-methylpiperazin-1-yl)-[1,1′-biphenyl]-3-yl)-6-oxo-4-(trifluoromethyl)-1,6-dihydropyridine-3-carboxamide], the Kd at WDR5 protein (setting [1]) and on WDR5 protein (setting [2]) was 76 nM in each case. Moreover, the residence time on WDR5 protein (SPR) stood at 0.19 min. Also, the half-maximal inhibitory concentration (IC50) on MLL1-WRAD2 complex (setting [3]) worked out at 2510 nM.
Turning to `CN1CCN(c2ccc(-c3ccc(OC4CCOCC4)nc3F)cc2NC(=O)c2c[nH]c(=O)cc2C(F)(F)F)CC1` [Example 8, N-(5-(2-fluoro-6-((tetrahydro-2H-pyran-4-yl)oxy)pyridin-3-yl)-2-(4-methylpiperazin-1-yl)phenyl)-6-oxo-4-(trifluoromethyl)-1,6-dihydropyridine-3-carboxamide], the Kd at WDR5 protein (setting [1]) and on WDR5 protein (setting [2]) was 5 nM each time. Besides, on WDR5 protein (SPR), the residence time was found to be 5.85 min. For the same compound, the IC50 at MLL1-WRAD2 complex (setting [3]) came to 1480 nM.
Regarding `Cc1cc(C(=O)Nc2cc(-c3cc(CN4CCOCC4)ccc3F)ccc2N2CCN(C)CC2)cc(C)c1F` [Example 11, 4-fluoro-N-(2′-fluoro-4-(4-methylpiperazin-1-yl)-5′-(morpholinomethyl)-[1,1′-biphenyl]-3-yl)-3,5-dimethylbenzamide], the Kd on WDR5 protein (setting [1]) and on WDR5 protein (setting [2]) was 6 nM in each case. The residence time at WDR5 protein (SPR) is 1.04 min. Besides, the half-maximal inhibitory concentration (IC50) on MLL1-WRAD2 complex (setting [3]) worked out at 4430 nM.
In the case of `CN1CCN(c2ccc(-c3cc(CN4CCOCC4)ccc3F)cc2NC(=O)c2cn(C)c(=O)cc2C(F)(F)F)CC1` [Example 13, N-(2′-fluoro-4-(4-methylpiperazin-1-yl)-5′-(morpholinomethyl)-[1,1′-biphenyl]-3-yl)-1-methyl-6-oxo-4-(trifluoromethyl)-1,6-dihydropyridine-3-carboxamide], the equilibrium dissociation constant (Kd) on WDR5 protein (setting [1]) and at WDR5 protein (setting [2]) was 15 nM each time. For the same compound, the residence time at WDR5 protein (SPR) was 0.3 min. Further, the IC50 on MLL1-WRAD2 complex (setting [3]) came to 8980 nM.
Turning to `CN(C)C1CCN(c2ccc(-c3cc(CN4CCOCC4)ccc3F)cc2NC(=O)c2c[nH]c(=O)cc2C(F)(F)F)C1` (stereo not shown) [Example 87, N-(4-(3-(dimethylamino)pyrrolidin-1-yl)-2′-fluoro-5′-(morpholinomethyl)-[1,1′-biphenyl]-3-yl)-6-oxo-4-(trifluoromethyl)-1,6-dihydropyridine-3-carboxamide], the 50% inhibitory concentration (IC50) on MLL1-WRAD2 complex (setting [3]) was 3890 nM.
For `CC(=O)Nc1cc(C)c(C(=O)Nc2cc(-c3cc(CN4CCOCC4)ccc3F)ccc2N2CCN(C)CC2)cn1` [Example 106, 6-acetamido-N-(2′-fluoro-4-(4-methylpiperazin-1-yl)-5′-(morpholinomethyl)-[1,1′-biphenyl]-3-yl)-4-methylnicotinamide], the results for the dissociation constant Kd on WDR5 protein (setting [1]) and on WDR5 protein (setting [2]) were 8.3 nM and 829 nM, respectively. In addition, the residence time at WDR5 protein (SPR) was determined as 3.2 min.
Turning to `COc1cc(C(F)(F)F)c(C(=O)Nc2cc(-c3cc(CN4CCN(CC5CC5)CC4)ccc3F)ccc2N2CCN(C)CC2)cn1` [Example 107, N-(5′-((4-(cyclopropylmethyl)piperazin-1-yl)methyl)-2′-fluoro-4-(4-methylpiperazin-1-yl)-[1,1′-biphenyl]-3-yl)-6-methoxy-4-(trifluoromethyl)nicotinamide], the Kd on WDR5 protein (setting [1]) and at WDR5 protein (setting [2]) was above 200 nM in each case.
Consider `CNc1cc(C(F)(F)F)c(C(=O)Nc2cc(-c3cc(CN4CCOCC4)ccc3F)ccc2N2CCN(C)CC2)cn1` [Example 108, N-(2′-fluoro-4-(4-methylpiperazin-1-yl)-5′-(morpholinomethyl)-[1,1′-biphenyl]-3-yl)-6-(methylamino)-4-(trifluoromethyl)nicotinamide], for which the Kd at WDR5 protein (setting [1]) and at WDR5 protein (setting [2]) was above 200 nM in each case.
In the case of `CN1CCN(c2ccc(-c3cc(CN4CCOCC4)ccc3F)cc2NC(=O)c2cnc(N)cc2C(F)(F)F)CC1` [Example 109, 6-amino-N-(2′-fluoro-4-(4-methylpiperazin-1-yl)-5′-(morpholinomethyl)-[1,1′-biphenyl]-3-yl)-4-(trifluoromethyl)nicotinamide], the Kd at WDR5 protein (setting [1]) and on WDR5 protein (setting [2]) was above 200 nM each time.
As for `C[C@@H]1CN(c2ccc(-c3ccc(F)c(CN(C)C4COC4)c3F)cc2NC(=O)c2c[nH]c(=O)cc2C(F)(F)F)C[C@H](C)N1C` [Example 112, N-(2′,4′-difluoro-3′-((methyl(oxetan-3-yl)amino)methyl)-4-((3S,5R)-3,4,5-trimethylpiperazin-1-yl)-[1,1′-biphenyl]-3-yl)-6-oxo-4-(trifluoromethyl)-1,6-dihydropyridine-3-carboxamide], the Kd at WDR5 protein (setting [1]) and at WDR5 protein (setting [2]) was 23 nM in each case. The residence time on WDR5 protein (SPR) came out at 1.3 min.
For the compound `C[C@@H]1CN(c2ccc(-c3c(F)cc(CNC4CCCCC4)cc3F)cc2NC(=O)c2c[nH]c(=O)cc2C(F)(F)F)C[C@H](C)N1C` [Example 115, N-(4′-((cyclohexylamino)methyl)-2′,6′-difluoro-4-((3S,5R)-3,4,5-trimethylpiperazin-1-yl)-[1,1′-biphenyl]-3-yl)-6-oxo-4-(trifluoromethyl)-1,6-dihydropyridine-3-carboxamide], the Kd at WDR5 protein (setting [1]) and on WDR5 protein (setting [2]) was 55 nM in each case. Further, on WDR5 protein (SPR), the residence time came to 1.5 min.
On to `C[C@@H]1CN(c2ccc(-c3ccc(C(N)=O)cc3F)cc2NC(=O)c2c[nH]c(=O)cc2C(F)(F)F)C[C@H](C)N1C` [Example 117, N-(4′-carbamoyl-2′-fluoro-4-((3S,5R)-3,4,5-trimethylpiperazin-1-yl)-[1,1′-biphenyl]-3-yl)-6-oxo-4-(trifluoromethyl)-1,6-dihydropyridine-3-carboxamide], for which the dissociation constant (Kd) on WDR5 protein (setting [1]) turned out to be 1.7 nM; on WDR5 protein (setting [2]), 1.6 nM. Moreover, on WDR5 protein (SPR), the residence time stood at 7.9 min.
In the case of `C[C@@H]1CN(c2ccc(-c3ccc(N4CCOCC4)cc3F)cc2NC(=O)c2c[nH]c(=O)cc2C(F)(F)F)C[C@H](C)N1C` [Example 118, N-(2′-fluoro-4′-morpholino-4-((3S,5R)-3,4,5-trimethylpiperazin-1-yl)-[1,1′-biphenyl]-3-yl)-6-oxo-4-(trifluoromethyl)-1,6-dihydropyridine-3-carboxamide], the Kd on WDR5 protein is 5.6 nM; at WDR5 protein (setting [2]), 6 nM. The residence time on WDR5 protein (SPR) was 7.2 min.
Regarding `C[C@@H]1CN(c2ccc(-c3cc(C(N)=O)ccc3F)cc2NC(=O)c2c[nH]c(=O)cc2C(F)(F)F)C[C@H](C)N1C` [Example 119, N-(5′-carbamoyl-2′-fluoro-4-((3S,5R)-3,4,5-trimethylpiperazin-1-yl)-[1,1′-biphenyl]-3-yl)-6-oxo-4-(trifluoromethyl)-1,6-dihydropyridine-3-carboxamide], the figures for the Kd on WDR5 protein (setting [1]) and at WDR5 protein (setting [2]) were 3.7 nM and 4 nM, respectively. In addition, on WDR5 protein (SPR), the residence time was determined as 2.8 min.
`C[C@@H]1CN(c2ccc(-c3cc(C(=O)NC(C)(C)CC(C)(C)C)c(F)cc3F)cc2NC(=O)c2c[nH]c(=O)cc2C(F)(F)F)C[C@H](C)N1C` [Example 120, N-(2′,4′-difluoro-5′-((2,4,4-trimethylpentan-2-yl)carbamoyl)-4-((3S,5R)-3,4,5-trimethylpiperazin-1-yl)-[1,1′-biphenyl]-3-yl)-6-oxo-4-(trifluoromethyl)-1,6-dihydropyridine-3-carboxamide]: the Kd on WDR5 protein (setting [1]) and at WDR5 protein (setting [2]) was 6 nM each time. In addition, the residence time at WDR5 protein (SPR) was determined as 12.5 min.
Take `C[C@@H]1CN(c2ccc(-c3cc(C(N)=O)c(F)cc3F)cc2NC(=O)c2c[nH]c(=O)cc2C(F)(F)F)C[C@H](C)N1C` [Example 121, N-(5′-carbamoyl-2′,4′-difluoro-4-((3S,5R)-3,4,5-trimethylpiperazin-1-yl)-[1,1′-biphenyl]-3-yl)-6-oxo-4-(trifluoromethyl)-1,6-dihydropyridine-3-carboxamide]: the dissociation constant (Kd) at WDR5 protein (setting [1]) was determined as 9.2 nM; at WDR5 protein (setting [2]), 9 nM. Also, on WDR5 protein (SPR), the residence time was 2.3 min.
As to `C[C@@H]1CN(c2ccc(-c3ccc(C(=O)NC(C)(C)CC(C)(C)C)c(F)c3F)cc2NC(=O)c2c[nH]c(=O)cc2C(F)(F)F)C[C@H](C)N1C` [Example 122, N-(2′,3′-difluoro-4′-((2,4,4-trimethylpentan-2-yl)carbamoyl)-4-((3S,5R)-3,4,5-trimethylpiperazin-1-yl)-[1,1′-biphenyl]-3-yl)-6-oxo-4-(trifluoromethyl)-1,6-dihydropyridine-3-carboxamide], the Kd turned out to be 7.6 nM at WDR5 protein (setting [1]) and 8 nM on WDR5 protein (setting [2]). Moreover, at WDR5 protein (SPR), the residence time worked out at 6.7 min.
Taken in the same sequence, the figures for `C[C@@H]1CN(c2ccc(-c3ccc(C(N)=O)c(F)c3F)cc2NC(=O)c2c[nH]c(=O)cc2C(F)(F)F)C[C@H](C)N1C` [Example 123, N-(4′-carbamoyl-2′,3′-difluoro-4-((3S,5R)-3,4,5-trimethylpiperazin-1-yl)-[1,1′-biphenyl]-3-yl)-6-oxo-4-(trifluoromethyl)-1,6-dihydropyridine-3-carboxamide] were 3.6 nM, 4 nM and 4.2 min.
Take `CN1CCN(c2ccc(-c3cc(CN4CCOCC4)ccc3Cl)cc2NC(=O)c2c[nH]c(=O)cc2C(F)(F)F)CC1` [drawing 288, reference compound]: the equilibrium dissociation constant (Kd) on WDR5 protein (setting [4]) was found to be 34.5 nM.
Consider `CN1CCN(c2ccc(-c3cc(CN4CCOCC4)ccc3F)cc2NC(=O)c2c[nH]c(=O)cc2C(F)(F)F)CC1` [drawing 289], for which, at MLL1-WRAD2 complex (Table 4, effect of Fluoro-substitution, read-out: IC50 (MLL1)), the IC50 turned out to be 939 nM.
Turning to `CN1CCN(c2ccc(-c3cc(C(=O)NC4CCCCC4)ccc3F)cc2NC(=O)c2c[nH]c(=O)cc2C(F)(F)F)CC1` [drawing 291], at WDR5 protein (setting [4]), the Kd was determined as 6 nM.
In turn, `CN1CCN(c2ccc(-c3cccc(CN4CCC(F)CC4)c3)cc2NC(=O)c2c[nH]c(=O)cc2C(F)(F)F)CC1` [reference compound] yielded a τ at WDR5 protein (Table 4, effect of Fluoro-substitution) of 0.91 min. Besides, the Kd at WDR5 protein (setting [4]) is 30 nM.
